Experimental data published in US10072304B2, “Nuclear localization of Src-family tyrosine kinases is required for growth factor-induced euchromatinization” (National University Corporation Chiba University, priority 2009, dated 2018).

Assays:
COS-1 cells [1] = assay: Quantitation of chromatin condensation levels (S.D. value of PI intensity per pixel) in COS-1 cells; assay type: cell-based, monkey
Experimental: COS-1, HeLa cells (Japanese Collection of Research Bioresources, Osaka), MCF-7 (provided by H. Saya), A431 (provided by M. N. Fukuda), HEK293 (provided by […]), HCT116 (provided by T. Tomonaga), and SYF ([37]; provided by M. Okada and S. Nada) cells were cultured in Iscove's modified DME containing 5% fetal bovine serum (FBS). Cells were transiently transfected with 0.5 μg of plasmid vector using Trans IT Transfection reagent (Mirus) or with 1 μg of plasmid vector using linear polyethylenimine (25 kDa) (Polyscience, Inc.). For growth factor stimulation, COS-1 cells were starved under low serum conditions (0.05% FBS) for 24 h and restimulated with serum (5% FBS). For stimulation of endogenous SFKs, cells were treated with 3 mM Na3VO4 for 3 h, and SFK-mediated tyrosine phosphorylation was verified by treatment with 10 μM PP2 (SFK inhibitor; Calbiochem) or 100 nM wortmannin (PI3K inhibitor; Alomone Labs) for 21 h before Na3VO4 treatment. Na3VO4 was dissolved at 500 mM in 500 mM unbuffered HEPES before use. For preparation of stable transfectant clones, SYF cells transfected with c-Src-wt or Lyn-wt were selected in 333 μg/mL Zeocin (Invitrogen), and COS-1 cells were transfected with the BOSH2BGFP-N1 vector, which encodes GFP-tagged histone H2B ([39,40]; provided by H. Saya), were selected in 3 μg/mL blasticidin. Confocal and Nomarski differential-interference-contrast images were obtained using a Fluoview FV500 confocal laser scanning microscope with a 40×1.00 NA oil and a 100×1.35 NA oil immersion objective (Olympus, Tokyo) and an LSM 510 confocal laser scanning microscope with a 63×1.40 NA oil immersion objective (Zeiss), as described. One planar (xy) section slice (0.6-μm thickness) is shown in all experiments. In brief, cells were fixed with 4% paraformaldehyde for 20 min, and permeabilized in phosphate-buffered saline (PBS) containing 0.1% saponin and 3% bovine serum albumin at room temperature. Cells were subsequently reacted with an appropriate primary antibody for 1 h, washed with PBS containing 0.1% saponin, stained with FITC- or TRITC-conjugated secondary antibody for 1 h. […] To ensure no bleed-through from the fluorescein signal into the red channel, fluorescein and rhodamine were independently excited at 488 nm and 543 nm, respectively. PI was excited at 488 or 543 nm. Emission signals were detected between 505 and 525 nm for fluorescein, at more than 560 nm for rhodamine and more than 610 nm for PI [44]. Composite figures were prepared using Photoshop 5.0 and Illustrator 9.0 software (Adobe). For nuclear staining with anti-pTyr, anti-ATF-2 […]/71, and anti-histone H3K4me3 antibodies, cells were in situ extracted with 0.5% Triton X-100 at 4° C. for 3 min before fixation with 4% paraformaldehyde. For HP1α staining, cells were fixed in 100% methanol at -20° C. for 10 min followed by permeabilization for 30 min in PBS containing 0.1% Triton X-100 at room temperature. Cells were reacted with anti-HP1α antibody for 1 h at room temperature, washed with PBS four times, and stained with secondary antibody for 1 h. Fluorescence intensity plots of anti-histone H3K4me3, anti-ATF-2 […]/71 and anti-HP1α antibody and PI staining (see FIGS. 18B, 19B, and 20B, respectively) were generated using Fluoview version 4.3 software (Olympus, Tokyo). For detection of the kinase activity of nuclear SFKs, purified nuclei suspended in kinase buffer (50 mM HEPES-NaOH, pH7.4, 5 mM MgCl2, 5 mM MnCl2 and 0.1 mM Na3VO4) were preincubated with or without 10 μM PP2 at 30° C. for 30 min, and subsequently incubated with 5 or 10 μM ATP at 30° C. for 30 min, followed by cytocentrifugation at 200×g for 5 min and fixation with 4% paraformaldehyde. DNA was stained with 20 μg/mL PI and 200 μg/mL RNase A for 30 min. Mean fluorescence intensity of tyrosine-phosphorylated proteins in the nucleus was measured using the ImageJ software (National Institutes of Health). Confocal images of PI-stained nuclei were obtained as described above. […]

COS-1 cells [2] = assay: Cell cycle analysis: DNA content by flow cytometry in COS-1 cells; assay type: cell-based, monkey; conditions: H2O2 at 1, 10 and 20 mM for 1 h, FIGS. 11A-11D
Experimental: To obtain S- and G2-phase cells, COS-1 cells grown in Iscove's modified DME containing 5% FBS were blocked at S phase by exposure to 3 mM thymidine for 18 h. Cells were washed free of thymidine with PBS, and cultured for further 2 or 5 h. Cells were detached by trypsinization, fixed in 1.5% paraformaldehyde at 4° C. for 1 h, and then permeabilized with 70% ethanol at −30° C. for more than 1 h. Fixed cells were washed twice with PBS containing 3% FBS, and treated with 200 μg/ml RNase A and 50 μg/ml PI at 37° C. for 30 min to stain DNA. Cell cycle phase was analyzed by flow cytometry using a MoFlo cell sorter equipped with a 488-nm argon laser (Beckman Coulter). Cells transfected with Lyn-HA or NLS-Lyn-HA were cultured for 36 h, fixed and permeabilized as described above. Fixed cells were washed with PBS containing 3% FBS, stained with anti-HA antibody for 1 h, washed with PBS and stained with FITC-conjugated secondary antibody for 1 h. After DNA staining with PI as described above, cell cycle phase was analyzed in cells expressing Lyn-HA or NLS-Lyn-HA.

Row | SMILES | basal levels of chromatin condensation (COS-1 cells [1]; cells not specified, U0126 concentration not given, data not shown) | level of DNA condensation (S.D. value) (COS-1 cells [1]; COS-1, H2O2 at 1, 10 and 20 mM for 1 h, FIG. 12) | apoptotic SubG1 cells (histograms of DNA content) (COS-1 cells [2])
1 | N#CC(=C(/N)Sc1ccccc1N)/C(C#N)=C(\N)Sc1ccccc1N [U0126] | slightly decreased |  | 
2 | OO [H2O2, hydrogen peroxide] |  | corresponded to the degree of apoptosis | induction of apoptotic SubG1 cells in a dose-dependent manner
